Experimental data published in patent US20250002455A1, “NEW N-PHENYLPYRROLAMIDE INHIBITORS OF DNA GYRASE AND TOPOISOMERASE IV WITH ANTIBACTERIAL ACTIVITY” (priority 2020, published 2025).
In brackets after ≈: the same amount, converted by molar mass. Where two headings read alike, the source gives them in different places.

Columns and labels:
E. coli DNA gyrase = biological target: T1, E. coli DNA gyrase (Escherichia coli, UniProt P0AES6); test: biochemical; conditions: E. coli DNA gyrase; read-out: IC50
T1 construct: purchased Inspiralis
Experimental: Inhibitory activities for compounds of the present invention were determined on E. coli and S. aureus DNA gyrase and topoisomerase IV in an assay from Inspiralis on streptavidin-coated 96-well microtiter plates from Thermo scientific Pierce. […] After washing off the unbound oligonucleotide, the enzyme test was performed. […] Reaction solutions were incubated at 37° C. for 30 min. After that, the TF buffer (50 mM NaOAc with pH 5.0, 50 mM NaCl and 50 mM MgCl2) was added to terminate the enzymatic reaction. After additional incubation for 30 min at rt, during which biotin-oligonucleotide-plasmid triplex was formed, the unbound plasmid was washed off using TF buffer and SybrGOLD in T10 buffer (10 mM Tris HCl with pH 8.0 and 1 mM EDTA) was added. […] GraphPad Prism 6.0 software was used to calculate the IC50 values. The result is given as the average value of three independent measurements. […] Chemoth.

[1] = tested on: S. aureus ATCC 700699 (VISA); test: Microbroth dilution MIC (CLSI); format: cell-based; conditions: Staphylococcus aureus
Experimental: (§1) The chemical entities described in the present invention were assessed for their antimicrobial activity using a microbroth dilution assay as recommended by the CLSI (Methods for Dilution Antimicrobial Susceptibility Tests for Bacteria That Grow Aerobically, and Methods for Antimicrobial Susceptibility Testing of Anaerobic Bacteria, Clinical and Laboratory Standards Institute, Document M07-A8, and M11-A8, Wayne, PA 19087, USA, 2012.). Compounds were dissolved by using 100% DMSO. Serial two-fold dilutions of each compound were made by using 100% DMSO as the diluent.
(§2) A library of Gram-negative and Gram-positive microbes and their drug- and multidrug-resistant variants were employed as test organisms. The MIC (minimum inhibitory concentration) was determined as the lowest concentration of an individual drug that lead to no visible growth.

E. faecalis ATCC 29212 = test: Microbroth dilution MIC (CLSI); format: cell-based; conditions: Enterococcus faecalis, ATCC29212; E. faecalis ATCC 29212; read-out: MIC
Experimental: as §1, §2

S. aureus ATCC 29213 = test: Microbroth dilution MIC (CLSI); format: cell-based; conditions: Staphylococcus aureus, ATCC29213; S. aureus ATCC 29213; read-out: MIC
Experimental: as §1, §2

E. coli ATCC 25922 = test: Microbroth dilution MIC (CLSI); format: cell-based; conditions: Escherichia coli, ATCC25922; E. coli ATCC 25922; read-out: MIC
Experimental: as §1, §2

P. aeruginosa ATCC 27853 = test: Microbroth dilution MIC (CLSI); format: cell-based; conditions: Pseudomonas aeruginosa, ATCC27853; P. aeruginosa ATCC 27853; read-out: MIC
Experimental: as §1, §2

E. faecium ATCC 700221 = test: Microbroth dilution MIC (CLSI); format: cell-based; conditions: Enterococcus faecium, ATCC700221
Experimental: as §1, §2

A. baumannii ATCC 17978 = test: Microbroth dilution MIC (CLSI); format: cell-based; conditions: Acinetobacter baumannii, ATCC17978; A. baumannii ATCC 17978; read-out: MIC
Experimental: as §1, §2

[2] = tested on: S. aureus ATCC 43300 (MRSA); test: Microbroth dilution MIC (CLSI); format: cell-based; conditions: Staphylococcus aureus
Experimental: as §1, §2

[3] = tested on: E. spp. cloacae ATCC 13047; test: Microbroth dilution MIC (CLSI); format: cell-based; conditions: Enterobacter cloacae, ATCC13047; E. spp. cloacae ATCC 13047; read-out: MIC
Experimental: as §1, §2

K. pneumoniae ATCC 10031 = test: Microbroth dilution MIC (CLSI); format: cell-based; conditions: Klebsiella pneumoniae, ATCC10031; K. pneumoniae ATCC 10031; read-out: MIC
Experimental: as §1, §2

[4] = S. aureus ATCC 700699 (VISA), read-out: MIC
[5] = E. faecium ATCC 700221, read-out: MIC
[6] = S. aureus ATCC 43300 (MRSA), read-out: MIC

`Cc1[nH]c(C(=O)Nc2ccc(-c3noc(=O)[nH]3)cc2N2CCNCC2)c(Cl)c1Cl` [Example 5, 4-(2-(3,4-Dichloro-5-methyl-1H-pyrrole-2-carboxamido)-5-(5-oxo-4,5-dihydro-1,2,4-oxadiazol-3-yl)phenyl)piperazin-1-ium chloride] was tested, and the IC50 (E. coli DNA gyrase) was 6.07 nM, the MIC [1] was > 64 µg/mL and the MIC (E. faecalis ATCC 29212) was > 64 µg/mL. The MIC (S. aureus ATCC 29213) was > 64 µg/mL, the MIC (E. coli ATCC 25922) was > 64 µg/mL and the MIC (P. aeruginosa ATCC 27853) was > 64 µg/mL. For the same molecule, the MIC (E. faecium ATCC 700221) was > 64 µg/mL, the MIC (A. baumannii ATCC 17978) was > 64 µg/mL and the MIC [2] was > 64 µg/mL. For the same molecule, the MIC [3] was > 64 µg/mL and the MIC (K. pneumoniae ATCC 10031) was > 64 µg/mL.

In the case of `Cc1[nH]c(C(=O)Nc2ccc(-c3noc(=O)[nH]3)cc2N2CCCC2)c(Cl)c1Cl` [Example 6, 3,4-Dichloro-5-methyl-N-(4-(5-oxo-4,5-dihydro-1,2,4-oxadiazol-3-yl)-2-(pyrrolidin-1-yl)phenyl)-1H-pyrrole-2-carboxamide], the IC50 (E. coli DNA gyrase) is reported as 12.6 nM, the MIC [1, 4] is reported as < 0.0313 µg/mL and the MIC (E. faecalis ATCC 29212) is reported as < 0.0312 µg/mL. For the same molecule, the MIC (S. aureus ATCC 29213) was > 64 µg/mL, the MIC (E. coli ATCC 25922) was > 64 µg/mL and the MIC (P. aeruginosa ATCC 27853) was > 64 µg/mL. For the same molecule, the MIC (E. faecium ATCC 700221; [5]) was 0.0625 µg/mL (≈ 0.148 µM), the MIC (A. baumannii ATCC 17978) was > 64 µg/mL and the MIC [2, 6] was 0.5 µg/mL (≈ 1.18 µM). The MIC [3] was > 64 µg/mL and the MIC (K. pneumoniae ATCC 10031) was > 64 µg/mL.

For `Cc1[nH]c(C(=O)Nc2ccc(-c3noc(=O)[nH]3)cc2N2CCN(c3ccccc3)CC2)c(Cl)c1Cl` [Example 7, 3,4-Dichloro-5-methyl-N-(4-(5-oxo-4,5-dihydro-1,2,4-oxadiazol-3-yl)-2-(4-phenylpiperazin-1-yl)phenyl)-1H-pyrrole-2-carboxamide], the IC50 (E. coli DNA gyrase) was 109 nM, the MIC [1, 4] was 2 µg/mL (≈ 3.9 µM) and the MIC (E. faecalis ATCC 29212) was 0.125 µg/mL (≈ 0.243 µM). For the same molecule, the MIC (S. aureus ATCC 29213) was 4 µg/mL (≈ 7.79 µM), the MIC (E. coli ATCC 25922) was > 64 µg/mL and the MIC (P. aeruginosa ATCC 27853) was > 64 µg/mL. The MIC (E. faecium ATCC 700221; [5]) was 4 µg/mL (≈ 7.79 µM), the MIC (A. baumannii ATCC 17978) was > 64 µg/mL and the MIC [2, 6] was 0.0625 µg/mL (≈ 0.122 µM). For the same molecule, the MIC [3] was > 64 µg/mL and the MIC (K. pneumoniae ATCC 10031) was > 64 µg/mL.

`Cc1[nH]c(C(=O)Nc2ccc(C(=O)O)cc2NC2CCNCC2)c(Cl)c1Cl.Cl` [Example 15, 4-((5-Carboxy-2-(3,4-dichloro-5-methyl-1H-pyrrole-2-carboxamido)phenyl)amino)piperidin-1-ium chloride] was tested, and the IC50 (E. coli DNA gyrase) was 532 nM, the MIC [1, 4] was > 64 µg/mL and the MIC (E. faecalis ATCC 29212) was > 64 µg/mL. For the same molecule, the MIC (S. aureus ATCC 29213) was > 64 µg/mL, the MIC (E. coli ATCC 25922) was > 64 µg/mL and the MIC (P. aeruginosa ATCC 27853) was > 64 µg/mL. For the same molecule, the MIC (E. faecium ATCC 700221; [5]) was > 64 µg/mL, the MIC (A. baumannii ATCC 17978) was > 64 µg/mL and the MIC [2, 6] was > 64 µg/mL. The MIC [3] was > 64 µg/mL and the MIC (K. pneumoniae ATCC 10031) was > 64 µg/mL.

With `Cc1[nH]c(C(=O)Nc2ccc(C(=O)O)cc2N2CCN(c3ccccc3)CC2)c(Cl)c1Cl` [Example 16, 4-(3,4-Dichloro-5-methyl-1H-pyrrole-2-carboxamido)-3-(4-phenylpiperazin-1-yl)benzoic acid] the IC50 (E. coli DNA gyrase) was 199 nM, the MIC [1, 4] was > 64 µg/mL and the MIC (E. faecalis ATCC 29212) was > 64 µg/mL. The MIC (S. aureus ATCC 29213) was > 64 µg/mL, the MIC (E. coli ATCC 25922) was > 64 µg/mL and the MIC (P. aeruginosa ATCC 27853) was > 64 µg/mL. For the same molecule, the MIC (E. faecium ATCC 700221; [5]) was > 64 µg/mL, the MIC (A. baumannii ATCC 17978) was > 64 µg/mL and the MIC [2, 6] was > 64 µg/mL. The MIC [3] was > 64 µg/mL and the MIC (K. pneumoniae ATCC 10031) was > 64 µg/mL.

`Cc1[nH]c(C(=O)Nc2ccc(-c3n[nH]c(=O)o3)cc2NC2CCNCC2)c(Cl)c1Cl.Cl` [Example 19, 4-((2-(3,4-Dichloro-5-methyl-1H-pyrrole-2-carboxamido)-5-(5-oxo-4,5-dihydro-1,3,4-oxadiazol-2-yl)phenyl)amino)piperidin-1-ium chloride] was tested, and the IC50 (E. coli DNA gyrase) was 4.4 nM, the MIC [1, 4] was > 64 µg/mL and the MIC (E. faecalis ATCC 29212) was > 64 µg/mL. For the same molecule, the MIC (S. aureus ATCC 29213) was > 64 µg/mL, the MIC (E. coli ATCC 25922) was > 64 µg/mL and the MIC (P. aeruginosa ATCC 27853) was > 64 µg/mL. For the same molecule, the MIC (E. faecium ATCC 700221; [5]) was > 64 µg/mL, the MIC (A. baumannii ATCC 17978) was > 64 µg/mL and the MIC [2, 6] was > 64 µg/mL. For the same molecule, the MIC [3] was > 64 µg/mL and the MIC (K. pneumoniae ATCC 10031) was 2 µg/mL.
